According to patent US4569907A, “Thiopeptolide substrates for vertebrate collagenase” (Monsanto Company, priority 1984, dated 1986):
Non-standard residues stand in square brackets, D forms with d. Residues, ends and D or L forms follow the SMILES beside them. *: point of attachment. Dnp = O=[N+]([O-])c1ccc(*)c([N+](=O)[O-])c1

Columns and labels:
Assay type in all cases: biochemical
collagenase = target: T1, collagenase (Homo sapiens, UniProt P03956); test: HPLC assay of substrate hydrolysis by collagenase (comparison substrates without chromophores); details: Table I Comparison of Substrate; assayed by HPLC
T1 construct: endogenous in cells; host or cells: normal human skin fibroblasts (culture media)
T1 sequence (P03956 100-469): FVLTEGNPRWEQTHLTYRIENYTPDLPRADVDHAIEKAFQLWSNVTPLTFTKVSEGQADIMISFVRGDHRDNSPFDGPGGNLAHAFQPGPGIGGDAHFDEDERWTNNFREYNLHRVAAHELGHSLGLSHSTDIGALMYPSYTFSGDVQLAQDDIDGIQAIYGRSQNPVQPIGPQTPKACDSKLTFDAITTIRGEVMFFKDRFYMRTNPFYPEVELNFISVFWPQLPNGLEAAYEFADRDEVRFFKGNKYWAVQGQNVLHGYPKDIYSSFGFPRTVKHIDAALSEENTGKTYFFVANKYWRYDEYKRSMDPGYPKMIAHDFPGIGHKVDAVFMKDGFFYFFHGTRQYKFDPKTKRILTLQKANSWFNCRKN
Procedure: (§1) The following Table I sets forth the relative rates of hydrolysis in the above spectrophotometric assay using ther above thiopeptolides as substrates in comparison to the rates of hydrolysis assayed by High Performance Liquid Chromatography (HPLC) of two commercially available substrates for collagenase and two other substrates described in copending application Ser. No. 450,318, cited hereinbefore.

vertebrate collagenase = target: T2, vertebrate collagenase (Homo sapiens, UniProt P03956); test: Inhibition of vertebrate collagenase (I50, median inhibitory concentration)
T2 sequence (P03956 100-469): T1 sequence (P03956 100-469)

[1] = target: T3, Collagenase from culture media of normal human skin fibroblasts (Homo sapiens, UniProt P03956); test: Spectrophotometric assay for collagenase: hydrolysis of thiopeptolide substrates with 4,4'-dithiodipyridine or Ellman's reagent; details: for Relative Rate (of hydrolysis): Table I Comparison of Substrate, spectrophotometric assay, pH 6.5-7.0, initial rates
T3 construct: endogenous in cells; host or cells: normal human skin fibroblasts (culture media)
T3 sequence (P03956 100-469): T1 sequence (P03956 100-469)
Procedure: Collagenase was prepared from culture media of normal human skin fibroblasts substantially according to the procedure of Stricklin et al., Biochem. 16 1607 (1977). The enzyme (23 μg/ml in 0.5 M tris buffer [tris(hydroxymethyl) amino methane], 0.01 M CaCl2, pH 7.5) was activated by incubating 10 μl samples with one μl of trypsin (10 mg/ml in 1 mM HCl) for twenty minutes at room temperature followed by addition of 20 μl of soybean trypsin inhibitor (5 mg/ml in 0.05 M tris buffer, 0.01 M CaCl2, pH 7.5).
The activated enzyme was diluted 100 to 2000 fold for use with each of the following substrate thiopeptolides:
(§2) The spectrophotometric assay was carried out at substrate concentrations of from 0.01 mM to 5 mM in 0.05 M HEPES buffer (N-2-hydroxyethylpiperizine-N'-2-ethanesulfonic acid) with 0.01 M CaCl2 at a pH of 6.5-7.0 and containing 0.5 mM to 1.0 mM 4,4'-dithiodipyridine (or Ellman's Reagent). The total reaction volume was 250 μl including 10 to 100 μl of the diluted activated enzyme. The reaction solutions were placed in 10 mm pathlength, self-masking microcuvettes and the hydrolysis followed using a Gilford model 250 spectrophotometer at 324 λ(410 λ for Ellman's Reagent) and equipped with a Gilford model 6051 recorder. The initial rates were limited to the first 5% of reaction and were corrected for non-enzymatic hydrolysis, which never exceeded 25% of the total reaction at pH 6.5-7.0. The 4,4'dithiodipyridine (or Ellman's Reagent) at 0.5 mM was in large excess under the initial rate assay conditions and was not rate limiting.
as §1

Carboxypeptidase Y = target: T4, Carboxypeptidase Y (Saccharomyces cerevisiae, UniProt P00729); test: Enzyme selectivity for thiopeptolide, spectrophotometric hydrolysis; details: Table II Enzyme Selectivity
T4 sequence (P00729 112-532): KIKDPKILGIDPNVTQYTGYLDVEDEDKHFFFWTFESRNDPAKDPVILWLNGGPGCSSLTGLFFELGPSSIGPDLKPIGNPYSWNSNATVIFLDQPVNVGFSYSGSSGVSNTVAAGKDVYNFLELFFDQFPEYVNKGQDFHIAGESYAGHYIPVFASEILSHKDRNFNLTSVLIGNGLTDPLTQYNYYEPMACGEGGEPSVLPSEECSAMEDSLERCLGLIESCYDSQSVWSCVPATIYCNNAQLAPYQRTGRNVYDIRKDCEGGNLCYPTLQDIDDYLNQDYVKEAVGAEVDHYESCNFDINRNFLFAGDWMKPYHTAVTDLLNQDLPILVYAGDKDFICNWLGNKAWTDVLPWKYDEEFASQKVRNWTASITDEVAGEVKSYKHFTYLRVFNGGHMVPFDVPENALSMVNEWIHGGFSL
Procedure: as §2
(§3) The ability of five proteolytic enzymes other than collagenase to cleave the synthetic substrate Ac-Pro-Leu-Gly-S-Leu-Leu-Gly-OC2 H5 was tested by hydrolysis and following spectrophotometrically as in Example 14. The following Table II sets forth the relative selectivity of these enzymes in comparison to vertebrate collagenase.

Elastase = test: as above; details: Table II Enzyme Selectivity
Procedure: as §2, §3

Kallikrein = test: as above; details: Table II Enzyme Selectivity
Procedure: as §2, §3

Trypsin = target: T5, Trypsin (Bos taurus, UniProt P00760); test: as above; details: Table II Enzyme Selectivity
T5 sequence (P00760 24-246): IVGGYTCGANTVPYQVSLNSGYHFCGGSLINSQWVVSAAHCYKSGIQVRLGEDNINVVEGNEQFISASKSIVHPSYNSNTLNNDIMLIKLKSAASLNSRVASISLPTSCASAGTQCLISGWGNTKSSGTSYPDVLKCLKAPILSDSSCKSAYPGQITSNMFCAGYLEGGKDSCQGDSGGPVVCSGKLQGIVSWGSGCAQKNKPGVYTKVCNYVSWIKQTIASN
Procedure: as §2, §3

α-Chymotrypsin = α-Chymotrypsin (Bos taurus, UniProt P00766); test: as above; details: Table II Enzyme Selectivity
Procedure: as §2, §3

Compound	Relative Rate (of hydrolysis) (collagenase)	Relative Rate (of hydrolysis) [1]	also measured
CCOC(=O)CNC(=O)[C@H](CC(C)C)NC(=O)[C@H](CC(C)C)NC(=O)CNC(=O)[C@H](CC(C)C)NC(=O)[C@@H]1CCCN1C(C)=O [Ac--Pro--Leu--Gly--Leu--Leu--Gly--OC2 H5] (Ac-PLGLLG-OEt)	250		
CCOC(=O)CNC(=O)[C@H](CC(C)C)NC(=O)[C@@H](S)CC(C)C [HS-Leu-Leu-Gly-OC2 H5]			IC50 (vertebrate collagenase): 1000 nM
CCOC(=O)CNC(=O)[C@H](Cc1ccccc1)NC(=O)[C@H](CC(C)C)SC(=O)CNC(=O)[C@H](CC(C)C)NC(=O)[C@@H]1CCCN1C(C)=O [Ac-Pro-Leu-Gly-S-Leu-Phe-Gly-OC2 H5]		5900	
DNP-Pro-Gln-Gly-Ile-Ala-Gly-Gln-D-Arg-OH (Dnp-PQGIAGQ[dR]-OH; SMILES CC[C@H](C)[C@H](NC(=O)CNC(=O)[C@H](CCC(N)=O)NC(=O)[C@@H]1CCCN1c1ccc([N+](=O)[O-])cc1[N+](=O)[O-])C(=O)N[C@@H](C)C(=O)NCC(=O)N[C@@H](CCC(N)=O)C(=O)N[C@H](CCCNC(=N)N)C(=O)O) [commercially available synthetic collagenase substrate, Peninsula Laboratories; DNP=Dinitrophenyl]	5		
CCOC(=O)CNC(=O)[C@H](C)NC(=O)[C@H](CC(C)C)NC(=O)CNC(=O)[C@H](CC(C)C)NC(=O)[C@@H]1CCCN1C(C)=O [Ac--Pro--Leu--Gly--Leu--Ala--Gly--OC2 H5] (Ac-PLGLAG-OEt)	110		
CCOC(=O)CNC(=O)[C@H](CC(C)C)NC(=O)[C@H](CC(C)C)SC(=O)CNC(=O)[C@H](CC(C)C)NC(=O)[C@@H]1CCCN1C(C)=O [Ac-Pro-Leu-Gly-S-Leu-Leu-Gly-OC2 H5]		8800	Relative Rate ([1]; Table II Enzyme Selectivity, Vertebrate Collagenase, same as in Example 14): 260; Relative Rate (Carboxypeptidase Y): 0.03; Relative Rate (Elastase): 12; Relative Rate (Kallikrein): 4.3; Relative Rate (Trypsin): 0.07; Relative Rate (α-Chymotrypsin): 2.0
CCOC(=O)CNC(=O)[C@H](Cc1ccccc1)NC(=O)[C@H](CC(C)C)SC(=O)CNC(=O)[C@H](C)NC(=O)[C@@H]1CCCN1C(C)=O [Ac-Pro-Ala-Gly-S-Leu-Phe-Gly-OC2 H5]		2800	
CCOC(=O)CNC(=O)[C@H](C)NC(=O)[C@H](CC(C)C)SC(=O)CNC(=O)[C@H](C)NC(=O)[C@@H]1CCCN1C(C)=O [Ac-Pro-Ala-Gly-S-Leu-Ala-Gly-OC2 H5]		950	
DNP-Pro-Leu-Gly-Ile-Ala-Gly-Arg-NH2 (Dnp-PLGIAGR-NH2; SMILES CC[C@H](C)[C@H](NC(=O)CNC(=O)[C@H](CC(C)C)NC(=O)[C@@H]1CCCN1c1ccc([N+](=O)[O-])cc1[N+](=O)[O-])C(=O)N[C@@H](C)C(=O)NCC(=O)N[C@@H](CCCNC(=N)N)C(N)=O) [commercially available synthetic collagenase substrate, Peninsula Laboratories; DNP=Dinitrophenyl]	25		
